Experimental data as given in US10946016B2, “Solid forms of an epidermal growth factor receptor kinase inhibitor” (Celgene CAR LLC, priority 2012, dated 2021).
Entries after “also recorded” stand apart in the source; their conditions may differ.

Assays:
[1] = Aqueous solubility: slurries in deionised water, HPLC; format: physicochemical; conditions: slurry in deionised water shaken ca. 24 hours
Experimental: Slurries of all each polymorphic form were created in deionised water and shaken for ca. 24 hours. The resulting solid was then analysed by HPLC to determine the concentration of material dissolved.

[2] = Competitive slurries at ambient and 60° C. (polymorph stability studies); format: physicochemical; conditions: slurrying at ambient and 60° C.
Experimental: The results from the competitive slurries carried out at ambient (ca. 22° C.) and 60° C. are tabulated below.

[3] = Dynamic vapour sorption (DVS) with post DVS XRPD; format: physicochemical
Experimental: For dynamic vapour sorption (DVS), approximately 10 mg of sample was placed into a wire mesh vapour sorption balance pan and loaded into a DVS-1 dynamic vapour sorption balance by Surface Measurement Systems. The sample was subjected to a ramping profile from 20-90% relative humidity (RH) at 10% increments, maintaining the sample at each step until a stable weight had been achieved (99.5% step completion). After completion of the sorption cycle, the sample was dried using the same procedure, but all the way down to 0% RH and finally taken back to the starting point of 20% RH. The weight change during the sorption/desorption cycles were plotted, allowing for the hygroscopic nature of the sample to be determined.

[4] = Stability at 40° C./75% RH for 1 week and 2 weeks (XRPD and HPLC); format: physicochemical; conditions: open container
Experimental: Samples of each form were exposed to an environment of 40° C./75% RH for 1 week and 2 week periods to determine stability. Resulting solids were analysed by XRPD and HPLC to establish if any changes had occurred.

[5] = Thermodynamic solubility studies at various pH; format: physicochemical; conditions: for solubility at 24 h: thermodynamic from solid
Experimental: Slurries of Form I were created in media of various pH (pH 1; pH 3; pH 4.5 and pH 6.6) and shaken for ca. 24 hours. After 24 hours, the slurries were filtered and the solution analysed by HPLC in order to determine the solubility at the various pH levels. For the buffer solutions, KCl/HCl was used for pH 1 and citrate/phosphate combinations for pH 3, 4.5 and 6.6 (10 mM). The pH of the solutions was also measured prior to HPLC analysis. XRPD analysis was carried out on the remaining solids after 24 hours of shaking.

[6] = 7 day stability studies of Form I at 25° C., 80° C., 40° C./75% RH (open and closed); format: physicochemical
Experimental: Approximately 15 mg of Form I was placed separately into vials and then exposed to 25° C., 80° C. and 40° C./75% RH environments (open and closed vials) for 1 week to determine stability. The resulting solids were analysed by XRPD and HPLC to establish if any changes had occurred. Results are presented in Tables 2 and 3 and FIGS. 62 and 63.

[7] = XRPD after heating or drying (solid form conversion); format: physicochemical; conditions: heated to 115° C.
Experimental: X-ray powder diffraction (XRPD) analysis was carried out on a Siemens D5000, scanning the samples between 3 and 30 or 50° 2-theta. For samples <100 mg, ca. 5-10 mg of sample was gently compressed onto a glass slide which fitted into the sample holder. For samples >100 mg, ca. 100 mg of sample was gently compressed into a plastic sample holder, so that the sample surface was smooth and just above the level of the sample holder. Measurements were made as follows: In order to determine the relationship between Forms A and B, a sample of Form B was heated to 120° C. and then XRPD analysis was carried out. […] To determine whether Form C remains the same after losing the solvent present, a sample of Form C was heated to 120° C. (i.e., just past the temperature at which the solvent is removed) and then XRPD analysis was carried out. […] In order to determine whether Form E remains the same after losing the solvent present, a sample of Form E was heated to 120° C. (i.e., just past the temperature at which the solvent is lost) and then XRPD analysis was carried out. […] In order to determine whether Form F remains the same after losing the solvent present, a sample of Form F was heated to 120° C. (i.e., just past the temperature at which the solvent is lost) and then XRPD analysis was carried out. […] To examine whether Form H changes to Form A after heating to 115° C. (point after the solvent loss), the Form H material was heated to 115° C. and XRPD analysis and DSC analysis were then carried out. […] The DSC analysis (FIG. 49) indicated overlapping endotherms between ca. 115-135° C., followed by an exotherm at peak 143.9° C., likely indicating a polymorphic transition. A final endotherm was present at onset 202.7° C. (peak 206.6° C.) corresponding with the Form A melt.

[8] = TGA of dehydrated material after standing on the bench (water pick-up); format: physicochemical; conditions: heated to 115° C., then on the bench ca. 1 hour at ambient
Experimental: To test whether Form H picks up water after desolvating/dehydrating the material by heating to 115° C., a further test was carried out whereby Form H was heated to 115° C. in a TGA pan. The sample was then removed from the TGA pan and allowed to sit on the bench for ca. 1 hour. After 1 hour, another TGA was carried out up to 115° C. […] (FIG. 51).

[9] = test system: human non-small cell lung cancer cell; test: Non-small cell lung cancer cell proliferation in vivo
[10] = test system: human non-small cell lung cancer cell; test: Non-small cell lung cancer cell proliferation in vitro; format: cell-based
mutant EGFR kinase = test: Enzymatic and cellular assays of EGFR kinase inhibition; format: biochemical
[11] = closed container, 40° C./75% RH

## C=CC(=O)Nc1cccc(Nc2nc(Nc3ccc(N4CCN(C(C)=O)CC4)cc3OC)ncc2C(F)(F)F)c1 [Form A, N-(3-(2-(4-(4-acetylpiperazin-1-yl)-2-methoxyphenylamino)-5-(trifluoromethyl)pyrimidin-4-ylamino)phenyl)acrylamide]
[1]
  detection by HPLC analysis for the aqueous solubility: could not be detected
[1]; assessment in words
  aqueous solubility: poor
[2]
  relative polymorph stability: likely the more stable form in comparison with Form B
[3]
  Post DVS XRPD (solid form): remained Form A
  hygroscopicity (DVS): non-hygroscopic
[3]; between 20 and 70% RH
  DVS water uptake: 0.87%
[4]; 1 week
  HPLC purity after storage: ca. 97.5%
  XRPD analysis after storage: still be consistent with Form A, with some loss in crystallinity
[4]; 2 week
  HPLC purity after storage: ca. 96.3%
  XRPD analysis after storage: still be consistent with Form A, however, it became poorly crystalline

## C=CC(=O)Nc1cccc(Nc2nc(Nc3ccc(N4CCN(C(C)=O)CC4)cc3OC)ncc2C(F)(F)F)c1 [Form I, N-(3-(2-(4-(4-acetylpiperazin-1-yl)-2-methoxyphenylamino)-5-(trifluoromethyl)pyrimidin-4-ylamino)phenyl)acrylamide]
[5]; aqueous buffer, buffer pH 3 (citrate/phosphate), pH prior to analysis 2.26, ca. 24 hours
  solubility at 24 h: 23 µg/mL
[5]; aqueous buffer, buffer pH 4.5 (citrate/phosphate), pH prior to analysis 3.38, ca. 24 hours
  solubility at 24 h: 2 µg/mL
[5]; buffer pH 6.6 (citrate/phosphate), pH prior to analysis 5.04, ca. 24 hours
  Solubility: Not detected
[5]; pH 1, after 24 hours
  XRPD of solids remaining after thermodynamic solubility experiment: mixture of Form I and possibly the HCl salt
[5]; pH 6.6, 4.5 and 3.0, after 24 hours
  XRPD of solids remaining after thermodynamic solubility experiment: remained as Form I
[5]; simulated gastric fluid, buffer pH 1 (KCl/HCl), pH prior to analysis 0.95, ca. 24 hours
  solubility at 24 h: 3270 µg/mL
[3]
  Post DVS XRPD (solid form): remained as Form I
  hygroscopicity (DVS): relatively non-hygroscopic
[3]; Cycle 1, sorption 20-90% RH
  DVS mass uptake: ca. 0.66%
[3]; Cycle 2, desorption, between 10-0% RH
  DVS rapid mass loss: ca. 2.7%
[3]; Cycle 2, desorption, between 90-10% RH
  DVS mass decrease: ca. 1.2%
[3]; Cycle 3, sorption, between 0-20% RH
  DVS moisture uptake: ca. 2.8%
[6]; closed container, 25° C.
  Purity after 1 week: 99.4%
  XRPD Analysis after 1 week: Form I
[6]; [11]
  Purity after 1 week: 99.3%
  XRPD Analysis after 1 week: Form I; also recorded: (some loss in crystallinity)
[6]; closed container, 80° C.
  Purity after 1 week: 99.2%
  XRPD Analysis after 1 week: Form I; also recorded: (some loss in crystallinity)
[6]; open container, 25° C.
  Purity after 1 week: 98.7%
  XRPD Analysis after 1 week: Form I
[6]; open container, 40° C./75% RH
  Purity after 1 week: 98.9%
  XRPD Analysis after 1 week: Form I
[6]; open container, 80° C.
  Purity after 1 week: 98.5%
  XRPD Analysis after 1 week: Form I; also recorded: (some loss in crystallinity)

## C=CC(=O)Nc1cccc(Nc2nc(Nc3ccc(N4CCN(C(C)=O)CC4)cc3OC)ncc2C(F)(F)F)c1 [Form H, N-(3-(2-(4-(4-acetylpiperazin-1-yl)-2-methoxyphenylamino)-5-(trifluoromethyl)pyrimidin-4-ylamino)phenyl)acrylamide]
[7]
  XRPD after heating: still corresponded with Form H, with some loss in crystallinity
[8]
  water pick-up of desolvated/dehydrated material: picked up water upon standing at ambient conditions

## C=CC(=O)Nc1cccc(Nc2nc(Nc3ccc(N4CCN(C(C)=O)CC4)cc3OC)ncc2C(F)(F)F)c1 [Compound 1, N-(3-(2-(4-(4-acetylpiperazin-1-yl)-2-methoxyphenylamino)-5-(trifluoromethyl)pyrimidin-4-ylamino)phenyl)acrylamide]
[9]
  inhibition of cell proliferation: inhibit human non-small cell lung cancer cell proliferation
[10]
  inhibition of cell proliferation: inhibit human non-small cell lung cancer cell proliferation
Mutant EGFR kinase
  selectivity for mutant EGFR as compared to wild-type EGFR: selective inhibitor of at least one mutation of EGFR
Mutant EGFR kinase; enzymatic and cellular assays
  inhibition of mutant EGFR kinase: selective covalent, irreversible inhibition of mutant EGFR kinase
